Test results from US20100292231A1, “Indazole Compounds for Treating Inflammatory Disorders, Demyelinating Disorders and Cancers” (priority 2007, published 2010).
Like-named read-outs stand apart in the source and are kept apart here.

Assays:
Assay in all cases: SelectScreen kinase specificity survey
Format in all cases: biochemical
IKBKB (IKK beta) = target: T1, IKBKB (IKK beta) (Homo sapiens, UniProt O14920); conditions: estimated, abridged dose response curve, read-out: Kinase inhibitory activity EC50
T1 construct: purchased Invitrogen, Inc. (SelectScreen service)
Experimental: (§1) Testing of the compounds described in this invention was carried out using the SelectScreen™ platform from Invitrogen, Inc. (Carlsbad. Calif., USA) and the details of its performance are readily viewed via the web by linking to: http://www.invitrogen.com/downloads/SelectScrn_Brochure.pdf.
(§2) Briefly, the approach is based on treating each specific kinase with a unique substrate and optical reporter system in the presence of ATP at 100 micromolar. In controls, the substrate is phosphorylated and a baseline optimal response is recorded.
(§3) The compounds were then re-tested by adding graded amounts of putative inhibitor which were added in 5 separate increments to generate a dose response curve. The latter is obtained by fitting to a 4 parameter Hill equation, a sigmoid saturation equation.
(§4) The same assay system described in Example 2 can be applied in the determination of kinase specificity. It is well understood by medicinal chemists in the development of kinase inhibitors that the resulting molecules often lack specificity. Not only are homologous kinases inhibited by the same class of compounds, but also non-homologous kinases can be affected by allosteric, induced, activated vs inactivated conformation, and protein folding interactions with the putative inhibitor, which otherwise had been designed to be specific. These off target effects are difficult to predict and can only be ruled in or out by empirically surveying a large set of kinases. It is also understood that changes to scaffolds and variation in their chemical decorations may influence the extent of promiscuity in the patterns of kinase inhibition across kinase classes.
(§5) The following experiment was conducted to address this issue. The indazole compound (IV), described in Example 2 and representative of the new genus was tested along with Symadex against a panel of 230 kinases representative of all known kinases classes. Included in the survey were the Flt3, its mutant, and close relatives in the Class III receptor tyrosine kinase class, together with serine-threonine kinases and atypical kinases many of which share no homology of active site with Flt3 as shown, for example, in the respective “genecard” for each kinase and available for inspection at on the web at http://www.genecards.org/.
(§6) Table 3 lists the estimated EC50 values from an abridged dose response curve for Symadex (C-1311) and CF-123. The kinases are listed alphabetically by Group and Family.

NTRK3 (TRKC) = target: T2, NTRK3 (TRKC) (Homo sapiens, UniProt Q16288)
T2 construct: purchased Invitrogen, Inc. (SelectScreen platform)
Experimental: as §1, §2, §3, §4, §5, §6

CAMK2B (CaMKII beta) = target: T3, CAMK2B (CaMKII beta) (Homo sapiens, UniProt Q13554); conditions: estimated, abridged dose response curve, read-out: Kinase inhibitory activity EC50
T3 construct: purchased Invitrogen, Inc. (SelectScreen platform)
Experimental: as §1, §2, §3, §4, §5, §6

HIPK1 (Myak) = target: T4, HIPK1 (Myak) (Homo sapiens, UniProt Q86Z02); conditions: estimated, abridged dose response curve, read-out: Kinase inhibitory activity EC50
T4 construct: purchased Invitrogen (SelectScreen platform)
Experimental: as §1, §2, §3, §4, §5, §6

PRKCA (PKC alpha) = target: T5, PRKCA (PKC alpha) (Homo sapiens, UniProt P17252); conditions: estimated, abridged dose response curve, read-out: Kinase inhibitory activity EC50
T5 construct: purchased Invitrogen (SelectScreen platform)
Experimental: as §1, §2, §3, §4, §5, §6

CSK = target: T6, CSK (Homo sapiens, UniProt P41240); conditions: estimated, abridged dose response curve, read-out: Kinase inhibitory activity EC50
T6 construct: purchased Invitrogen (SelectScreen service)
Experimental: as §1, §2, §3, §4, §5, §6

PASK = target: T7, PASK (Homo sapiens, UniProt Q96RG2); conditions: estimated, abridged dose response curve, read-out: Kinase inhibitory activity EC50
T7 construct: purchased Invitrogen, Inc. (SelectScreen platform)
Experimental: as §1, §2, §3, §4, §5, §6

EPHB2 = target: T8, EPHB2 (Homo sapiens, UniProt P29323); conditions: estimated, abridged dose response curve, read-out: Kinase inhibitory activity EC50
T8 construct: purchased Invitrogen (SelectScreen service)
Experimental: as §1, §2, §3, §4, §5, §6

NEK2 = target: T9, NEK2 (Homo sapiens, UniProt P51955); conditions: estimated, abridged dose response curve, read-out: Kinase inhibitory activity EC50
T9 construct: purchased Invitrogen, Inc. (SelectScreen service)
Experimental: as §1, §2, §3, §4, §5, §6

PAK3 = target: T10, PAK3 (Homo sapiens, UniProt O75914); conditions: estimated, abridged dose response curve, read-out: Kinase inhibitory activity EC50
T10 construct: purchased Invitrogen (SelectScreen platform)
Experimental: as §1, §2, §3, §4, §5, §6

SGKL (SGK3) = target: T11, SGKL (SGK3) (Homo sapiens, UniProt Q96BR1); conditions: estimated, abridged dose response curve, read-out: Kinase inhibitory activity EC50
T11 construct: purchased Invitrogen, Inc. (SelectScreen platform)
Experimental: as §1, §2, §3, §4, §5, §6

MATK (HYL, CTK) = target: T12, MATK (HYL, CTK) (Homo sapiens, UniProt P42679); conditions: estimated, abridged dose response curve, read-out: Kinase inhibitory activity EC50
T12 construct: purchased Invitrogen (SelectScreen service)
Experimental: as §1, §2, §3, §4, §5, §6

CSF1R (FMS) = target: T13, CSF1R (FMS) (Homo sapiens, UniProt P07333); conditions: estimated, abridged dose response curve, read-out: Kinase inhibitory activity EC50
T13 construct: purchased Invitrogen (SelectScreen platform)
Experimental: as §1, §2, §3, §4, §5, §6

CHEK1 (CHK1) = target: T14, CHEK1 (CHK1) (Homo sapiens, UniProt O14757); conditions: estimated, abridged dose response curve, read-out: Kinase inhibitory activity EC50
T14 construct: purchased Invitrogen, Inc. (SelectScreen platform)
Experimental: as §1, §2, §3, §4, §5, §6

MAPK13 (p38 delta) = target: T15, MAPK13 (p38 delta) (Homo sapiens, UniProt O15264); conditions: estimated, abridged dose response curve, read-out: Kinase inhibitory activity EC50
T15 construct: purchased Invitrogen, Inc. (SelectScreen service)
Experimental: as §1, §2, §3, §4, §5, §6

AMPK A2/B1/G1 = target: T16, AMPK A2/B1/G1 (Homo sapiens, UniProt P54619+P54646+Q9Y478); conditions: estimated, abridged dose response curve, read-out: Kinase inhibitory activity EC50
T16 construct: purchased Invitrogen, Inc. (SelectScreen platform)
Experimental: as §1, §2, §3, §4, §5, §6

PRKCE (PKC epsilon) = target: T17, PRKCE (PKC epsilon) (Homo sapiens, UniProt Q02156); conditions: estimated, abridged dose response curve, read-out: Kinase inhibitory activity EC50
T17 construct: purchased Invitrogen, Inc. (SelectScreen platform)
Experimental: as §1, §2, §3, §4, §5, §6

EGFR (ErbB1) L858R = target: T18, EGFR (ErbB1) L858R (Homo sapiens, UniProt P00533, L858R); conditions: estimated, abridged dose response curve, read-out: Kinase inhibitory activity EC50
T18 construct: purchased Invitrogen (SelectScreen service)
Experimental: as §1, §2, §3, §4, §5, §6

INSR = target: T19, INSR (Homo sapiens, UniProt P06213); conditions: estimated, abridged dose response curve, read-out: Kinase inhibitory activity EC50
T19 construct: purchased Invitrogen (SelectScreen platform)
Experimental: as §1, §2, §3, §4, §5, §6

MAP3K8 (COT) = target: T20, MAP3K8 (COT) (Homo sapiens, UniProt P41279); conditions: estimated, abridged dose response curve, read-out: Kinase inhibitory activity EC50
T20 construct: purchased Invitrogen, Inc. (SelectScreen service)
Experimental: as §1, §2, §3, §4, §5, §6

PRKCB2 (PKC beta II) = target: T21, PRKCB2 (PKC beta II) (Homo sapiens, UniProt P05771); conditions: estimated, abridged dose response curve, read-out: Kinase inhibitory activity EC50
T21 construct: purchased Invitrogen (SelectScreen platform)
Experimental: as §1, §2, §3, §4, §5, §6

STK3 (MST2) = target: T22, STK3 (MST2) (Homo sapiens, UniProt Q13188); conditions: estimated, abridged dose response curve, read-out: Kinase inhibitory activity EC50
T22 construct: purchased Invitrogen (SelectScreen platform)
Experimental: as §1, §2, §3, §4, §5, §6

SGK2 = target: T23, SGK2 (Homo sapiens, UniProt Q9HBY8); conditions: estimated, abridged dose response curve, read-out: Kinase inhibitory activity EC50
T23 construct: purchased Invitrogen, Inc. (SelectScreen platform)
Experimental: as §1, §2, §3, §4, §5, §6

KDR (VEGFR2) = target: T24, KDR (VEGFR2) (Homo sapiens, UniProt P35968); conditions: estimated, abridged dose response curve, read-out: Kinase inhibitory activity EC50
T24 construct: purchased Invitrogen, Inc. (SelectScreen platform)
Experimental: as §1, §2, §3, §4, §5, §6

FRK (PTK5) = target: T25, FRK (PTK5) (Homo sapiens, UniProt P42685); conditions: estimated, abridged dose response curve, read-out: Kinase inhibitory activity EC50
T25 construct: purchased Invitrogen (SelectScreen)
Experimental: as §1, §2, §3, §4, §5, §6

PRKCN (PKD3, PRKD3) = target: T26, PRKCN (PKD3, PRKD3) (Homo sapiens, UniProt O94806); conditions: estimated, abridged dose response curve, read-out: Kinase inhibitory activity EC50
T26 construct: purchased Invitrogen, Inc. (SelectScreen platform)
Experimental: as §1, §2, §3, §4, §5, §6

MAPK10 (JNK3) = target: T27, MAPK10 (JNK3) (Homo sapiens, UniProt P53779); conditions: estimated, abridged dose response curve, read-out: Kinase inhibitory activity EC50
T27 construct: purchased Invitrogen (SelectScreen platform)
Experimental: as §1, §2, §3, §4, §5, §6

T12 sequence (P42679 whole entry): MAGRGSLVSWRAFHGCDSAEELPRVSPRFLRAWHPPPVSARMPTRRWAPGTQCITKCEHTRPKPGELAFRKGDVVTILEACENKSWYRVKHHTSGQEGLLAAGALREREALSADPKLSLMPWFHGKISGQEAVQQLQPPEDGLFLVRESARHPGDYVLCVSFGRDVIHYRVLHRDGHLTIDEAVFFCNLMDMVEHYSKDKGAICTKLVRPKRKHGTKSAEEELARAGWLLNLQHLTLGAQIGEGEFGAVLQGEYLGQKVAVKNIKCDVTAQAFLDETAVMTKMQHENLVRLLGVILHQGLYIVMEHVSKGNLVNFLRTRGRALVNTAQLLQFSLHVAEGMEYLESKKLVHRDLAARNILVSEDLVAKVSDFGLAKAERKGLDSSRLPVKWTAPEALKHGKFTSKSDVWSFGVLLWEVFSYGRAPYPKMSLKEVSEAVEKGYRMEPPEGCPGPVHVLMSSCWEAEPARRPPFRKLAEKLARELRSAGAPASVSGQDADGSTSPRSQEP
T11 sequence (Q96BR1 whole entry): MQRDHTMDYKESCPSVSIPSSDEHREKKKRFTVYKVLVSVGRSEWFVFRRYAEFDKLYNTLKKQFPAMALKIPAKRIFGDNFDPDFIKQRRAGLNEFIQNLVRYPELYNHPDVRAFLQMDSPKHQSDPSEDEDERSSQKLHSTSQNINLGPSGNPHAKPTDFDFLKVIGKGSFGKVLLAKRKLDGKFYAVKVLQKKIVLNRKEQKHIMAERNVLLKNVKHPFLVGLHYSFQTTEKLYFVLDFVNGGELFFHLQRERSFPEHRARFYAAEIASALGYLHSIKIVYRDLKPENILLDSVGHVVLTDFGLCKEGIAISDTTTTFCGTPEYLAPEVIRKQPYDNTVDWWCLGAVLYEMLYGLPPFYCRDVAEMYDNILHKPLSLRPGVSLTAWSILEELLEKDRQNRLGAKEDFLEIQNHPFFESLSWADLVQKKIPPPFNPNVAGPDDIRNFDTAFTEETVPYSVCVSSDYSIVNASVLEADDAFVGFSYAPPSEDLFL
T10 sequence (O75914 whole entry): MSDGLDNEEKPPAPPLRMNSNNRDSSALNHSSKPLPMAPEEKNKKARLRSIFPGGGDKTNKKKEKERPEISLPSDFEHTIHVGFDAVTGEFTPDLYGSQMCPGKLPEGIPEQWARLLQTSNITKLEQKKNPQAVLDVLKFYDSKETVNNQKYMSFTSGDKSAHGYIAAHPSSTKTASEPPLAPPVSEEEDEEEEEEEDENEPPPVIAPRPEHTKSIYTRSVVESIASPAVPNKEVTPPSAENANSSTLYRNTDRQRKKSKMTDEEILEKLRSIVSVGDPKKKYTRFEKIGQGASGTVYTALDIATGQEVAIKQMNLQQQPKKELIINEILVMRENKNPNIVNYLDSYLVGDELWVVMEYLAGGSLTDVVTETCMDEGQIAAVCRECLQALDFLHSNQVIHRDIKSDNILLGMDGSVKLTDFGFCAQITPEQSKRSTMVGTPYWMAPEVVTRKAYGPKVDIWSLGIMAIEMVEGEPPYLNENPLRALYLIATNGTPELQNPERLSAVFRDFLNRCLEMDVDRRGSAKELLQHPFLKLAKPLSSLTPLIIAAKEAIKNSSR
T17 sequence (Q02156 whole entry): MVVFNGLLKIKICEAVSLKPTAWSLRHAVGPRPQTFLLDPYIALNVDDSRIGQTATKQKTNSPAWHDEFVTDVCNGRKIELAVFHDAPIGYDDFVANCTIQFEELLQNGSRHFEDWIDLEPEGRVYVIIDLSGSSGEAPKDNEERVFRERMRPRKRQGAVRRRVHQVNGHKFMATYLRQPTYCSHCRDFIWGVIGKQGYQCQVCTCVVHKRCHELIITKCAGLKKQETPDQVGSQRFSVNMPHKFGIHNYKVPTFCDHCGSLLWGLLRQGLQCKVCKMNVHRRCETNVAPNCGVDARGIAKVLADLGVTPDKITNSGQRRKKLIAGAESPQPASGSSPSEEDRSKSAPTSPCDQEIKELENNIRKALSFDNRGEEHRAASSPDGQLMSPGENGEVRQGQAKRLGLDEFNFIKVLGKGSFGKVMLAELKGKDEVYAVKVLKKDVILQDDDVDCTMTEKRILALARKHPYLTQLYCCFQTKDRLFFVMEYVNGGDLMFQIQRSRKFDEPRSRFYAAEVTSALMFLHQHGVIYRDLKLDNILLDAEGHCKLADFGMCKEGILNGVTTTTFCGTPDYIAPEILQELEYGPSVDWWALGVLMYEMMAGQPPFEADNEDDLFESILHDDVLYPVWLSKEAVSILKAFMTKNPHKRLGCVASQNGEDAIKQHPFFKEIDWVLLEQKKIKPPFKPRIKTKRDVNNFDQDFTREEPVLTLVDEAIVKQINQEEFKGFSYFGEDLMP
T8 sequence (P29323 19-1055): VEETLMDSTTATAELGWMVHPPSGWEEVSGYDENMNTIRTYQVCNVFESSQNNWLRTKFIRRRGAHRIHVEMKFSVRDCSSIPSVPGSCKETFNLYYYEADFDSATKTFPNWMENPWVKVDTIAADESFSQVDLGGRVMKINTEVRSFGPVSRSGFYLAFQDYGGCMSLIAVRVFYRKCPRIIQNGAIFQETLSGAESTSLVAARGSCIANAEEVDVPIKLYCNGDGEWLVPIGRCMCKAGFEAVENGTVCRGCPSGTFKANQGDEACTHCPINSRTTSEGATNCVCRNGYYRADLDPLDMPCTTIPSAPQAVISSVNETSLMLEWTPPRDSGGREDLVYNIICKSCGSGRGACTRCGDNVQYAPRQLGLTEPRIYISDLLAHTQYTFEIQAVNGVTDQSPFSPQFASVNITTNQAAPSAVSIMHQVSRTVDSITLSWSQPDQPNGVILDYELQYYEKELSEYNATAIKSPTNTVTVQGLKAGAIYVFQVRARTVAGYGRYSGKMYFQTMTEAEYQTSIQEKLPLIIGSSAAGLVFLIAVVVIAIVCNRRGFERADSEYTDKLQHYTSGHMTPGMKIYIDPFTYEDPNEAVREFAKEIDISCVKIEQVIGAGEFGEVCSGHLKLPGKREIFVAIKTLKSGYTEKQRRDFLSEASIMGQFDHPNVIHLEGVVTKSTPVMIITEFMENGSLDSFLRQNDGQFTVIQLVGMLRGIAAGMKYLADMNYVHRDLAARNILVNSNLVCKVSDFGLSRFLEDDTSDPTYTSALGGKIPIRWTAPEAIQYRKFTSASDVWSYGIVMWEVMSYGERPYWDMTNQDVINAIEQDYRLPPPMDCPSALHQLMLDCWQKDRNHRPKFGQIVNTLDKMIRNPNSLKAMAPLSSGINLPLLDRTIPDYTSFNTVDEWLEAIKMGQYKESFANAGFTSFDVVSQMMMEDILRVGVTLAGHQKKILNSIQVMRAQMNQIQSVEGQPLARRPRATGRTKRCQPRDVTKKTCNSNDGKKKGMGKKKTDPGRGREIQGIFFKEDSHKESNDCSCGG
T4 sequence (Q86Z02 whole entry): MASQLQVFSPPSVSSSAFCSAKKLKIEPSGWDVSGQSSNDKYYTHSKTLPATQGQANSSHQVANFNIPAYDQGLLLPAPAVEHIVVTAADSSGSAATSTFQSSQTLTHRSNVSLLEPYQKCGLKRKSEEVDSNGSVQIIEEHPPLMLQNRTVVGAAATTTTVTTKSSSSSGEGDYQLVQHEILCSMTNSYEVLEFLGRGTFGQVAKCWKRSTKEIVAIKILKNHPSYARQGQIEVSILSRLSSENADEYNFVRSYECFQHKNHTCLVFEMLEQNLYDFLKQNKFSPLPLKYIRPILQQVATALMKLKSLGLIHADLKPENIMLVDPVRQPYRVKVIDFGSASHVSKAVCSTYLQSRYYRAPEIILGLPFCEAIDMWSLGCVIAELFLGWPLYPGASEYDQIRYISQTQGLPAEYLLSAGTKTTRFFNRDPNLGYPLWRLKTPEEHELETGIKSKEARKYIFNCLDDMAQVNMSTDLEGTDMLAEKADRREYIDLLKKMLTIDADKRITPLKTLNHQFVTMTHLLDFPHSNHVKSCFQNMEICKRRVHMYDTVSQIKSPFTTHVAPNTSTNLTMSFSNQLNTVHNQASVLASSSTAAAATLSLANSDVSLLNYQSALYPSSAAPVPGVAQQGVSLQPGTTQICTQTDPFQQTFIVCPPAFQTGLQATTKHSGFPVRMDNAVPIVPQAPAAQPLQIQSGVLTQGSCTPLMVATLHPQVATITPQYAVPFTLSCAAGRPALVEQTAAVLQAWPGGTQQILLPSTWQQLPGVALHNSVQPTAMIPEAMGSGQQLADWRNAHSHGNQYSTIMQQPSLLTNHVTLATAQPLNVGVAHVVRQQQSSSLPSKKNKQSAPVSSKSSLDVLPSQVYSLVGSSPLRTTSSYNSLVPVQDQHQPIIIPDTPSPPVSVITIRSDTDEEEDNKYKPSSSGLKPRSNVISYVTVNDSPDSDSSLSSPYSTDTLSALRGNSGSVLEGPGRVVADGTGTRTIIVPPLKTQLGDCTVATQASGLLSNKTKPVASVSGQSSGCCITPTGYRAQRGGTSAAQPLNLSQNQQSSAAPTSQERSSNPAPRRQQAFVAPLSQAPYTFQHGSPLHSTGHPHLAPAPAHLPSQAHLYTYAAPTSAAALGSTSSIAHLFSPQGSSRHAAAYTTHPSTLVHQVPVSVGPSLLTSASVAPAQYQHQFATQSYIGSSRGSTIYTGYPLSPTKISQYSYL
T23 sequence (Q9HBY8 whole entry): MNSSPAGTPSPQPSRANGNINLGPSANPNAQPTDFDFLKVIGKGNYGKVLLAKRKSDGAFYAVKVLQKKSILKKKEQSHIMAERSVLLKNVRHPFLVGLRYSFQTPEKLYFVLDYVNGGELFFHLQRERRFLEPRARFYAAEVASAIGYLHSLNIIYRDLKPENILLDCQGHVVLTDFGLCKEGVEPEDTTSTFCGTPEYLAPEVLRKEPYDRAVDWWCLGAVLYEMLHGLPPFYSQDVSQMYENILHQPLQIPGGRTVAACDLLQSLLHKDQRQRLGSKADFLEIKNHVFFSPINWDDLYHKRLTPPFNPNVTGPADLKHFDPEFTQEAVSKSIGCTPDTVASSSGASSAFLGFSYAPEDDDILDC

Row | Compound | EC50 (IKBKB (IKK beta)) [µM] | EC50 (CAMK2B (CaMKII beta)) [µM] | EC50 (HIPK1 (Myak)) [µM] | EC50 (PRKCA (PKC alpha)) [µM] | EC50 (CSK) [µM] | EC50 (PASK) [µM] | EC50 (EPHB2) [µM] | EC50 (NEK2) [µM] | EC50 (PAK3) [µM] | EC50 (SGKL (SGK3)) [µM] | EC50 (MATK (HYL, CTK)) [µM] | EC50 (CSF1R (FMS)) [µM] | EC50 (CHEK1 (CHK1)) [µM] | EC50 (MAPK13 (p38 delta)) [µM] | EC50 (AMPK A2/B1/G1) [µM] | EC50 (PRKCE (PKC epsilon)) [µM] | EC50 (EGFR (ErbB1) L858R) [µM] | EC50 (INSR) [µM] | EC50 (MAP3K8 (COT)) [µM] | EC50 (PRKCB2 (PKC beta II)) [µM] | also measured
1 | CN(C)CCCNc1ccc2ncn3c4ccc5[nH]ncc5c4c(=O)c1c23 [Compound (IV)] | 2.8 | > 5 | 1.21 | > 5 | > 5 | 1.23 | > 5 | > 5 | > 5 | > 5 | > 5 | 0.205 | > 5 | > 5 | 1.57 | 2.52 | > 5 | 2.4 | > 5 | > 5 | EC50 (NTRK3 (TRKC); NTRK3 (TRKC), estimated, abridged dose response curve, read-out: Kinase inhibitory activity EC50): 0.24 µM; EC50 (STK3 (MST2)): > 5 µM; EC50 (SGK2): > 5 µM; EC50 (KDR (VEGFR2)): 0.83 µM; EC50 (FRK (PTK5)): 0.389 µM; EC50 (PRKCN (PKD3, PRKD3)): 0.302 µM; EC50 (MAPK10 (JNK3)): 2.81 µM
2 | CCN(CC)CCNc1ccc2ncn3c4ccc(O)cc4c(=O)c1c23 [Symadex, 5-(2-(diethylamino)ethylamino)-8-hydroxy-6H-imidazo[4,5,1-de]acridin-6-one, reference compound] | > 5 | > 5 | > 5 | > 5 | > 5 | 4.32 | > 5 | > 5 | > 5 | > 5 | > 5 | 0.428 | > 5 | > 5 | 1.79 | > 5 | > 5 | > 5 | 4.63 | > 5 | EC50 (NTRK3 (TRKC)): 3.72 µM; EC50 (STK3 (MST2)): > 5 µM; EC50 (SGK2): > 5 µM; EC50 (KDR (VEGFR2)): 1.6 µM; EC50 (FRK (PTK5)): 2.11 µM; EC50 (PRKCN (PKD3, PRKD3)): 0.221 µM; EC50 (MAPK10 (JNK3)): > 5 µM
